Source: patent US20080221205A1, “FURAN DERIVATIVES FOR PREVENTING AND CURING OSTEOPOROSIS AND PHARMACEUTICAL COMPOSITIONS CONTAINING THE SAME” (priority 2002, published 2008)
“Also recorded” adds a separate entry of the source.

What was measured:
Runx2 = Runx2 expression, p6xOSE2-Luc luciferase assay in C2C12 cells; format: cell-based, mouse; settings: concentration not given
Protocol: (§1) In the following tests, three kinds of cell lines were used. The human osteosarcoma cell lines, MG-63 (ATCC No. CRL-1427) and HOS (ATCC No. CRL-1543), and mouse muscle C2C12 muscle cells (ATCC No. CRL-1772) were purchased from ATCC (American Type Culture Collection, Rockville, USA), and cultured in Dulbecco's modified Eagle's medium (DMEM) supplemented with 10% fetal bovine serum (FBS).
Primarily, transient transfection was carried out using a p6xOSE2-Luc vector, which was prepared by inserting into a pGL3 promoter vector six tandem copies of the OSE2 motif, the binding site of the transcriptional factor Runx2 that is a critical regulator for osteoblast differentiation. Runx2 expression levels were determined by luciferase assay. The test procedure will be described in more detail, as follows.
C2C12 cells were plated onto 6-well plates at a density of 1 (10^5 cells per well, and cultured for 24 hrs in a 5% CO2 incubator.
Then, the cells transiently transfected with the p6xOSE2-Luc vector using a transfection reagent, LipofectAmine, as follows. The plasmid DNA was reacted with the transfection reagent for 15 min to form p6xOSE2-Luc DNA:lipofectamine complexes. During this reaction, culture medium was removed from each well of the plates, the cells were washed with FBS-free DMEM, and 800 μl of FBS-free DMEM was added to each well. […]

[1] = test system: ALP activity in HOS cells; assay: Alkaline phosphatase (osteoblast marker enzyme) activity in HOS cells; format: cell-based, human; settings: concentration not given
From the text: as §1
To examine whether the Compound 1 affects positively or negatively osteoblast activity, alkaline phosphatase (ALP) activity was measured. HOS cells were aliquotted onto a 96-well microplate at a density of 5×10^3 cells per well, and cultured. When forming a monolayer, the cells were treated with the naturally extracted compound (Compound 1) at prescribed concentrations. After incubation in 10% FBS-containing DMEM for 48 hrs, the cells were treated with 0.1% Triton X-100/saline for 30 min at 37° C. A portion of each cell lysate was reacted with 0.1 N glycine-NaCh buffer (pH 10.4) for 30 min at 37° C. in the presence of 100 mM nitrophenyl phosphate (PNPP) as a substrate of alkaline phosphate. The amount of PNP (ρ-nitrophenol) released from the substrate PNPP was determined by measuring absorbance at 405 nm. Protein amount was determined by a modified Lowry method, and enzyme activity was designated as nmol substrate cleaved/h/mg protein.

[2] = test system: ovariectomized white mice; assay: Bone mineral densitometer test, therapeutic effect on osteoporosis; format: in vivo; settings: test group
Protocol: After ovariectomy, female white mice weighing about 250 g were bred for four weeks. After checking the onset of osteoporosis in the mice, each of the mice was orally administered with 220 μl of the Compound 1 dissolved in 30 ml water for four weeks.
BMD measurement was performed before ovariectomy and every week for eight weeks after ovariectomy, using a bone mineral densitometer, XCT 540 Research SA made in Germany.
After anesthetizing the mice being bred in cages by intraperitoneal injection of a mixture of Ketamine HCl (ketara 10 mg/kg) and 2% xylazine HCl (Roupun 0.15 ml/kg), BMD measurement was made at a voxel size of 0.1×0.1 mm^2 and threshold values of 280 mg/cm^2 for cancellous bone and 500 mg/cm^2 for compact bone. The analysis sites at the proximal tibias were determined by Scout scans (10 mm/sec), and BMD was measured at three slices at the determined sites by CT scans (7 mm/sec). BMD measurement was performed twice or more at the same site every week during eight weeks after ovariectomy.

osteoprotegerin (OPG) = assay: Osteoprotegerin (OPG) expression in MG63 cells, OPG ELISA; format: cell-based, human; settings: concentration not given
Protocol: as §1
When MG63 cells grew confluently on 96-well plates, […] of FBS-free DMEM containing various concentrations of the Compound 1 was added to each well. After incubation for 16 hrs, the culture supernatants were collected. The amount of OPG released into the medium was determined using an OPG ELISA kit.

[3] = test system: ovariectomized white mice; assay: Bone mineral densitometer test, preventive effect on osteoporosis; format: in vivo; settings: for Change in BMD, %: test group, oral 10 mg per mouse after ovariectomy
Protocol: After ovariectomy, female white mice weighing about 250 g were orally administered with 10 mg of the Compound 1 per mice for four weeks. Bone mineral density (BMD) was measured before the ovariectomy and every week during the administration of the Compound 1, using a bone mineral densitometer, XCT 540 Research SA made in Germany.
After anesthetizing the mice being bred in cages by intraperitoneal injection of a mixture of Ketamine HCl (ketara 10 mg/kg) and 2% xylazine HCl (Roupun 0.15 ml/kg), BMD measurement was made at a voxel size of 0.1×0.1 mm^2 and threshold values of 280 mg/cm^2 for cancellous bone and 500 mg/cm^2 for compact bone. The analysis sites at the proximal tibias were determined by Scout scans (10 mm/sec), and BMD was measured at three slices at the determined sites by CT scans (7 mm/sec). BMD measurement was performed twice or more at the same site every week during four weeks.

In the case of `O=Cc1ccc(CO)o1` [Compound 1, 5-hydroxymethylfuran-2-carboxyaldehyde], the “Activity of Runx2 (in words)” value (Runx2) is reported as “increase the activity of Runx2”, the “Alkaline phosphatase activity compared to control” value [1] is reported as “about 121%” and the “Alkaline phosphatase activity compared to control” value ([1]; listed as compound prepared in Example 1) is reported as 120%. The “Change in BMD, %” value ([2]; Week 1 after ovariectomy (before administration), control −3) was −2.9%, the “Change in BMD, %” value ([2]; Week 3 after ovariectomy (before administration), control −15) was −14% and the “Change in BMD, %” value ([2]; Week 4 after ovariectomy (start of oral 220 μl administration), control −19) was −17%. The “Change in BMD, %” value ([2]; Week 7 after ovariectomy, oral 220 μl from week 4, control −25.9) was −19%, the “Expression of osteoprotegerin (OPG) in osteoblasts (in words)” value (osteoprotegerin (OPG)) was “increases the expression of osteoprotegerin (OPG)” and the “Change in BMD, %” value ([3]; Week 1, control −7.5) was −2.5%. For the same compound, the “Change in BMD, %” value ([3]; Week 2, control −11.6) was −3.2%, the “Change in BMD, %” value ([3]; Week 3, control −14.9) was −1.8% and the “Change in BMD, %” value ([3]; Week 4, control −18.6) was 3.7%. The “BMD compared to that before ovariectomy (in words)” value ([3]; oral 10 mg/day for four weeks after ovariectomy) was “increase in BMD; also recorded: remarkably increased bone mineral density (BMD)”.
